Where two headings read alike, the source gives them in different places.

Consider six compounds from PMC8129498, “Synthesis, Antitumor and Antiviral In Vitro Activities of New Benzotriazole-Dicarboxamide Derivatives” (Frontiers in Chemistry, 2021).

The nature of series [1]: Antiproliferative assay (MTT), CRL 7065 control fibroblasts. The series is classed as cell-based, human. Here is the method:
(§1) Cell lines were purchased from American Type Culture Collection (ATCC). The absence of mycoplasma contamination was checked periodically by the Hoechst staining method. Exponentially growing leukemia and lymphoma cells were seeded at 1 × 10^5 cells/ml in 96 well plates in RPMI-1640 medium, supplemented with 10% fetal bovine serum, 100 units/ml penicillin G, and 100 μg/ml streptomycin, and incubated at 37°C in a humidified, 5% CO2 atmosphere in the absence or presence of serial dilutions of test compounds. Cell viability was determined after 96 h at 37°C by the 3-(4,5-dimethylthiazol-2-yl)-2,5-diphenyl-tetrazolium bromide (MTT) method. Activity against solid-tumor derived cells was evaluated in exponentially growing cultures seeded at 5 × 10^4 cells/ml and allowed to adhere for 16 h to culture plates before the addition of the drugs. Cell viability was determined by the MTT method 4 days later. Vincristine and doxorubicin were used as reference drugs.
(§2) The extent of cell growth/viability and viral multiplication, at each drug concentration tested, were expressed as percentage of untreated controls. Concentrations resulting in 50% inhibition (CC50 or EC50) were determined by linear regression analysis.

Series [2] concerns DU145. The experiment in a line: Antiproliferative assay (MTT), DU145. To be noted: Homo sapiens, DU-145, 96 h, read-out: CC50 DU145. Type of series: cell-based. The method, then: as §1, §2
The test system of series [3] is CCRF-SB. In words: Antiproliferative assay (MTT), CCRF-SB. The series is classed as cell-based. To be noted: Homo sapiens, 96 h, read-out: CC50 CCRF-SB. Here is the method: as §1, §2
The subject of series [4] is CCRF-CEM. The experiment in a line: Antiproliferative assay (MTT), CCRF-CEM. To be noted: for CC50: Homo sapiens, CCRF-CEM, 96 h, read-out: CC50 CCRF-CEM. The series is classed as cell-based, human. The method, then: as §1, §2
The subject of series [5] is WIL-2NS. In words: Antiproliferative assay (MTT), WIL-2NS. Type of series: cell-based. To be noted: Homo sapiens, WIL2-NS, 96 h, read-out: CC50 WIL-2NS. Here is the method:
as §1, §2

The subject of series [6] is SK-MES1. The experiment in a line: Antiproliferative assay (MTT), SK-MES1. Type of series: cell-based. To be noted: Homo sapiens, SK-MES-1, 96 h, read-out: CC50 SK-MES1. Here is the method:
as §1, §2

The test system of series [7] is HeLa. In words: Antiproliferative assay (MTT), HeLa. The series is classed as cell-based. To be noted: Homo sapiens, 96 h, read-out: CC50 HeLa. The method, then: as §1, §2
For series [8], the system named is SK-MEL28. The experiment in a line: Antiproliferative assay (MTT), SK-MEL28. Type of series: cell-based. To be noted: Homo sapiens, SK-MEL-28, 96 h, read-out: CC50 SK-MEL28. The method, then:
as §1, §2

Series [9] has as its system SK-MES 1 cells. In words: Apoptosis assay (Annexin V/PI, flow cytometry). Type of series: cell-based, human. To be noted: 96 h. The method, then:
3b compound was selected as lead and employed in our assay. Human lung cancer cells (SK-MES 1) were seeded at the density of 8 × 10^5 cells/ml in 6-well plates (Corning, United States) with a complete medium (described in cell culture section). After overnight incubations, the cells were treated with or without different concentrations of 3b for 96 h. Cells were then labeled with Annexin V and PI as previously described ([Ibba et al., 2021]). Stained cells were then analyzed by flow cytometry, measuring the fluorescence emission at 530 and 620 nm using 488 nm excitation laser (MoFloAstrios EQ, Beckman Coulter). Cell apoptosis was analyzed using Software Summit Version 6.3.1.1, Beckman Coulter.

Series [10] relates to OVCAR-4. The experiment in a line: NCI60 Human Tumor Cell Lines Screen, OVCAR-4. The series is classed as cell-based. To be noted: OVCAR-4 ovarian cancer cell line, read-out: Percentage of Growth Inhibition (PGI). The method, then:
(§3) The in vitro anti-cancer screening was performed through the NCI60 Human Tumor Cell Lines Screen, provided by the Developmental Therapeutics Program of the National Cancer Institute (NCI, Bethesda, United States). A single dose of 10 µM of each compound is tested in the whole NCI60 cell panel. More details about the NCI60 screen methods are reported on the NCI website (https://dtp.cancer.gov ).

Series [11] deals with breast cancer cell lines. The experiment in a line: NCI60 Human Tumor Cell Lines Screen, breast cancer lines. Type of series: cell-based. To be noted: most of the breast cancer cell lines, read-out: Percentage of Growth Inhibition (PGI). The method, then: as §3
The subject of series [12] is panel of 60 human tumor cell lines. The experiment in a line: NCI60 Human Tumor Cell Lines Screen, whole panel. Type of series: cell-based. To be noted: 10 μM, of the 60 cell lines. The method, then: as §3
Series [13] concerns prostate cancer cell lines. The experiment in a line: NCI60 Human Tumor Cell Lines Screen, prostate cancer lines. Type of series: cell-based. To be noted: the two prostate cancer cell lines. Here is the method: as §3
Series [14] has as its system Coxsackievirus B5 (CV-B5). In words: Plaque reduction assay, CV-B5 in Vero-76 monolayers. To be noted: Enterovirus B. Type of series: cell-based.
Series [15] is described as follows: Cytotoxicity in Vero-76 cell-line (MTT). The series is classed as cell-based. To be noted: monkey (Cercopithecus aethiops), Vero-76 cells (mock-infected), mock-infected Vero-76 cells. The method, then:
Vero-76 cells were seeded in 96-well plates at an initial density of 5 × 10^5 cells/ml, in Dulbecco’s Modified Eagle Medium (D-MEM) with L-glutamine and 25 mg/L kanamycin, supplemented with 10% FBS. Cell cultures were then incubated at 37°C in a humidified and 5% CO2 atmosphere, in the absence or presence of serial dilutions of test compounds. The test medium used for the cytotoxic assay as well as for antiviral assay contained 1% of the appropriate serum. Cell viability was determined after 48–96 h at 37°C by MTT method for Vero-76 ([Pauwels et al., 1988]).
as §2

The test system of series [16] is Poliovirus type-1 (Sb-1). The experiment in a line: microbe, parasite or virus in culture. The series is classed as cell-based. To be noted: Enterovirus C, Vero 76, read-out: EC50, plaque reduction Sb-1.
Where [17] appears, read: MTT, human foreskin fibroblasts, non-tumor control, read-out: CC50 CRL 7065.

In the case of `CC[C@]1(O)C[C@H]2CN(CCc3c([nH]c4ccccc34)[C@@](C(=O)OC)(c3cc4c(cc3OC)N(C=O)[C@H]3[C@@](O)(C(=O)OC)[C@H](OC(C)=O)[C@]5(CC)C=CCN6CC[C@]43[C@@H]65)C2)C1` [Vincristine, reference compound], the CC50 at 96 h in series [1] (setting [17]) is greater than 4 µM. Also, the CC50 in series [2] stood at 0.02 ± 0.01 µM; in series [3], 0.003 ± 0.001 µM; in series [4], 0.003 ± 0.001 µM; in series [5], 0.006 ± 0.002 µM; in series [6], 0.01 ± 0.02 µM; in [7], 0.05 ± 0.02 µM. Also, in series [8], the CC50 was greater than 4 µM.

For the compound `O=C(CCCC(=O)Nc1ccc(-n2nnc3cc(Cl)c(Cl)cc32)cc1)Nc1ccc(-n2nnc3cc(Cl)c(Cl)cc32)cc1` [Compound 3b, N ^1,N ^5-Bis(4-(5,6-Dichloro-1H-Benzo[d][1,2,3]Triazol-1-yl)phenyl)glutaramide], the CC50 at 96 h in [1] (setting [17]) was 0.75 ± 0.05 µM. For the same compound, the “% Early apoptotic cells” value in series [9] (7μM) is recorded as 21.4 ± 12.32%; in [9] (20μM) it was 28.5 ± 4.63%. Further, the “% Late apoptotic cells” value in series [9] (7μM) is recorded as 10.5 ± 0.67%; in series [9] (20μM), 11.1 ± 2.08%. Further, the “% Live cells” value in series [9] (7μM) is reported as 63.8 ± 1.1%; in series [9] (20μM) it was 54.8 ±4.9%. For the same compound, the “% Necrotic cells” value in series [9] (7μM) was determined as 4.3 ± 0.74%; in series [9] (20μM), 5.6 ±1.74%. For the same compound, the apoptotic cells in [9] (7 µm) amounted to 32%; in series [9] (20 µm), 40%. The inhibition at 10 µM was 106% in [10]; 48 to 81% in series [11]; 80% in [13] (Homo sapiens, read-out: Percentage of Growth Inhibition (PGI)). Moreover, the CC50 in [2] is 5.1 µM; in series [3], 0.35 ± 0.07 µM; in series [4] it was 0.5 ± 0.1 µM; in [5], greater than 100 µM; in series [6] it was 6.8 ± 3.5 µM; in series [7], 7.1 ± 2.7 µM. The CC50 in series [8] came to 6.2 ± 1.3 µM. In addition, the “number of cell lines with PGI higher than 50%” value in [12] is on record as 29. The “Percentage of Growth Inhibition (PGI)” value in series [13] (10 μM) is listed as 66%.

Take `COc1cccc2c1C(=O)c1c(O)c3c(c(O)c1C2=O)C[C@@](O)(C(=O)CO)C[C@@H]3O[C@H]1C[C@H](N)[C@H](O)[C@H](C)O1` [Doxorubicin, reference compound]: it took 2 ± 0.2 µM to reach half-maximal cytotoxicity in series [1] (human) (CC50 at 96 h). The CC50 in [2] was determined as 0.3 ± 0.1 µM; in [3], 0.03 ± 0.02 µM; in series [4], 0.02 ± 0.01 µM; in series [5] it was 0.06 ± 0.01 µM; in series [6], 0.65 ± 0.05 µM; in [7] it was 1.8 ± 0.2 µM. Moreover, the CC50 in [8] was found to be 1.1 ± 0.2 µM.

With `O=C(/C=C/C(=O)Nc1ccc(-n2nnc3cc(Cl)c(Cl)cc32)cc1)Nc1ccc(-n2nnc3cc(Cl)c(Cl)cc32)cc1` [Compound 3d, N ^1 ,N ^4-Bis(4-(5,6-Dichloro-1H-Benzo[d][1,2,3]Triazol-1-yl)phenyl)fumaramide], the melting point was greater than 300 °C. Further, the CC50 at 96 h in series [1] (setting [17]) amounted to 0.37 ± 0.04 µM. Moreover, the CC50 in [2] is greater than 100 µM. Also, the CC50 in series [3] stood at 7.9 ± 0.9 µM. Besides, in [4], the CC50 was 0.07 ± 0.02 µM. The “selectivity index (SI)” value in series [4] (ratio of CC50 of non-tumor cells (CRL 7065) and CC50 of tumor cells (CCRF-CEM)) came out at 5.3. The CC50 in [5] is greater than 100 µM. For the same compound, the CC50 in series [6] is greater than 100 µM. In series [7], the CC50 is greater than 100 µM. In series [8], the CC50 is greater than 100 µM.

Compound `O=C(O)/C=C/C(=O)Nc1ccc(-n2nnc3cc(Cl)c(Cl)cc32)cc1` [Compound 4d, (E)-4-((4-(5,6-Dichloro-1H-Benzo[d][1,2,3]Triazol-1-yl)phenyl)amino)-4-oxobut-2-enoic Acid] gave a melting point of 231 to 233 °C. In addition, in series [1] (setting [17]), the CC50 at 96 h stood at 1.7 ± 0.1 µM. Also, the CC50 in series [2] is greater than 100 µM. In [3], the CC50 was 0.51 ± 0.13 µM. Also, the CC50 in series [4] was 3.3 ± 1.7 µM. The CC50 in series [5] was 64 ± 10 µM. Moreover, in series [6], the CC50 was greater than 100 µM. For the same compound, in series [14], the EC50 worked out at 10 µM. In series [15], this compound returned a CC50 greater than 100 µM. Moreover, the EC50 in [16] is greater than 100 µM. Besides, the CC50 in series [7] was greater than 100 µM. Moreover, the CC50 in [8] was greater than 100 µM.

For `O=C(CCCC(=O)Nc1ccc(Cn2nnc3cc(Cl)c(Cl)cc32)cc1)Nc1ccc(Cn2nnc3cc(Cl)c(Cl)cc32)cc1` [Compound 9b, N ^1,N ^5-Bis(4-((5,6-Dichloro-1H-Benzo[d][1,2,3]Triazol-1-yl)methyl)phenyl)Glutaramide], the melting point fell in the range of 204 to 206 °C. Besides, the CC50 at 96 h in [1] (setting [17]) is 6.7 ± 2.4 µM. Also, the CC50 in [2] worked out at 5.2 ± 0.4 µM. In series [3], the CC50 was 8.5 ± 3.2 µM. For the same compound, the CC50 in series [4] was found to be 5.5 ± 1.8 µM. The CC50 in series [5] was determined as 23 ± 7 µM. Besides, the CC50 in series [6] was 9.9 ± 3.1 µM. This compound also gave an EC50 in series [14] of 52 µM. In series [15], this compound yielded a CC50 of 75 µM. In series [16], the EC50 was greater than 75 µM. In addition, in series [7], the CC50 amounted to 5.4 ± 0.7 µM. For the same compound, in series [8], the CC50 was 2.6 ± 0.7 µM.
